Columns and labels:
[1] = Intrinsic 1'-OH-MDZ formation clearance, human duodenal mucosa/microsomes; format: in vitro ADME; settings: duodenal microsomes; eight human duodenal preparations, Vmax/Km; read-out: Microsomal intrinsic clearance (1'-OH-MDZ formation), duodenum
Method: (§1) For comparison, an intrinsic 1'-OH-MDZ formation clearance was determined for eight paired human duodenal and jejunal mucosae. The mucosal mass was removed from ~1 foot sections of duodenum and jejunum and total homogenate and microsomes were prepared, as described above. […] Microsomes were incubated with varying concentrations of MDZ for determination of Km and Vmax parameters for 1'-hydroxylation.
(§2) The total amount of microsomal protein per gram of mucosa was determined from the following relationship: [formula] This calculation assumes that CYP3A4 found in mucosal homogenate resides exclusively within the microsomal fraction. The microsomal intrinsic formation clearance was calculated as the ratio of Vmax to Km. The intrinsic 1'-OH-MDZ formation clearance per gram of mucosa was calculated as the product of the microsomal intrinsic formation clearance and the computed amount of microsomal protein per gram of mucosa.

[2] = system: human duodenal microsomes (CYP3A); experiment: as above; format: in vitro ADME; settings: eight human duodenal preparations, Vmax/Km; listed as MDZ
Method: as §1, §2

[3] = Intrinsic 1'-OH-MDZ formation clearance, human jejunal mucosa/microsomes; format: in vitro ADME; settings: jejunal microsomes; eight human jejunal preparations, Vmax/Km; read-out: Microsomal intrinsic clearance (1'-OH-MDZ formation), jejunum
Method: as §1, §2

[4] = system: human jejunal microsomes (CYP3A); experiment: as above; format: in vitro ADME; settings: eight human jejunal preparations, Vmax/Km; listed as MDZ
Method: as §1, §2

[5] = molecular target: CYP3A (Caco-2 cells) (Homo sapiens, UniProt P08684)
Method: Standards were also prepared in duplicate. Known amounts of MDZ and 1'-OH-MDZ (1-50 ng) were combined with 100 mM potassium phosphate buffer, pH 7.4.
Unknowns and standards were extracted with 5 mL ethyl acetate and the upper organic layer transferred to clean tubes. The solvent was evaporated to dryness under a stream of nitrogen. The remaining solvent was reconstituted in 100 μL derivatizing reagent (10% N-methyl-N-(t-butyldimethylsilyl)trifluoroacetamide in acetonitrile).
At the end of this period, the medium was replaced with medium not containing vitamin D (except that contributed by the 5% FBS). Next, 4 μM MDZ was added to the apical (luminal) or basolateral (serosal) medium of the cells.
Parent drug and metabolite concentrations measured at 1 and 2 hours after MDZ administration were used for computation. The amount of 1'-OH-MDZ formed during this interval was determined as the sum of metabolite in the apical and basolateral compartments at 2 hours minus the total amount measured at 1 hour.
Because the incubation medium contained significant amounts of FBS, the fraction of MDZ bound to culture medium proteins was measured by equilibrium dialysis. […] The unbound concentration of MDZ in the apical and basolateral compartments during cell culture was calculated as the product of the experimentally determined MDZ-free fraction and total MDZ concentration. Since MDZ concentrations in the apical and basolateral compartments were not at equilibrium during the 1-2 hour MDZ incubation interval, the intracellular reaction was assumed to be driven by a MDZ concentration that was more closely aligned with the concentration in the basolateral compartment.
At the end of this period, the medium was replaced with medium containing neither serum nor vitamin D. Next, MDZ (4 μM) was added to the apical compartment.

[6] = M. F. Paine et al.; cited from earlier work
[7] = system: CYP3A; settings: K. E. Thummel et al.; cited from earlier work
[8] = system: Caco-2 cells; experiment: Apical/basolateral distribution of midazolam and metabolite across Caco-2 monolayers
From the text: At the end of this period, the medium was replaced with medium not containing vitamin D (except that contributed by the 5% FBS).

[9] = 1α,25-(OH)2 -D3 pretreated cells

CYP3A (Caco-2 cells), sequence (P08684 2-503): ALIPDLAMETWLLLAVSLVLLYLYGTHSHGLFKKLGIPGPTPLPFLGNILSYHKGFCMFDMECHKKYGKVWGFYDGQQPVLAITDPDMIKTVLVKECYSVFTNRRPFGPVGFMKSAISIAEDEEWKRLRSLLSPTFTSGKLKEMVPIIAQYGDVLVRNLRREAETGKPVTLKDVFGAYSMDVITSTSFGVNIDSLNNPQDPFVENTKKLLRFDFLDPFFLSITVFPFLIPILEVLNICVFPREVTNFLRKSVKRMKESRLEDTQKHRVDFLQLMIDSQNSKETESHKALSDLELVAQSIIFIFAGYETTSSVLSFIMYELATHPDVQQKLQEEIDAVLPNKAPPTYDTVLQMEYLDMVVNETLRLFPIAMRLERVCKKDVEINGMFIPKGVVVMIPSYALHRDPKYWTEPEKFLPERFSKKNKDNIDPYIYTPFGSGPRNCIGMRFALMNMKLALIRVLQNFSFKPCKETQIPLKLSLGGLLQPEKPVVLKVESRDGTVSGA

Cc1ncc2n1-c1ccc(Cl)cc1C(c1ccccc1F)=NC2 [midazolam]
microsomal CLint [1]: 134 ± 109 µL/min/mg
Microsomal intrinsic clearance (1'-OH-MDZ formation), duodenum [2]: 133.8 μl/min/mg protein
microsomal CLint [3]: 118 ± 98.2 µL/min/mg
Microsomal intrinsic clearance (1'-OH-MDZ formation), jejunum [4]: 118.3 μl/min/mg protein
predicted unbound intracellular MDZ concentration in Caco-2 cells [5]: ~ 0.07 μM
rate of 1'-OH-MDZ formation over time ([5]; 0-24 h, FIG. 6A): remained roughly constant after 6 hours
time until 1'-OH-MDZ detectable after MDZ administration ([5]; 4 μM MDZ to either compartment, cells treated with 0.25 μM 1α,25-(OH)2 -D3): ≤ 1 h
1'-Hydroxymidazolam formation rate ([5]; 1-2 h incubation interval, 4 μM MDZ apical): 75.9 pmol/min/g cells
unbound midazolam concentration, apical ([5]; 1-2 h interval): 280 nM
unbound midazolam concentration, basolateral ([5]; 1-2 h interval): 66.3 nM
intrinsic 1'-OH-MDZ formation clearance, Caco-2 cells ([5]; 1-2 h interval, non-saturating): 1.14 ml/min/g cells
average midazolam concentration, apical ([5]; 1-2 h interval, total): 2740 nM
average midazolam concentration, basolateral ([5]; 1-2 h interval, total): 650 nM
intrinsic 1'-OH-MDZ formation clearance of Caco-2 cells as percent of duodenal mucosa [5, 9]: 30%
intrinsic 1'-OH-MDZ formation clearance of Caco-2 cells as percent of jejunal mucosa [5, 9]: 31%
site of midazolam glucuronidation in vivo [6]: occurs primarily in the liver and not in the intestine in vivo
Km [7]: ~3.4 µM
apical-to-basolateral concentration gradient of parent compound ([8]; apical administration of 4 μM MDZ, 12-24 h): approximately 1.4 fold
distribution of parent compound after basolateral administration ([8]; by 12 hours): distributed preferentially to the apical medium

From patent US5856189A, “Cell culture model for drug bioavailability” (priority 1997, dated 1999)
